Experimental data as given in ChEMBL document CHEMBL3526064, “Sequential metabolism of AMG 487, a novel CXCR3 antagonist, results in formation of quinone reactive metabolites that covalently modify CYP3A4 Cys239 and cause time-dependent inhibition of the enzyme” (Drug Metab Dispos, 2012).
One block for each compound: values may come before it.

Assays:
Cytochrome P450 3A4 [1] = biological target: T1, Cytochrome P450 3A4 (Homo sapiens, UniProt P08684); experiment: Drug metabolism assessed as recombinant CYP3A4 (unknown origin)-compound formation treated with (R)-N-(1-(3-(4-hydroxyphenyl)-4-oxo-3,4-dihydropyrido[2,3-d]pyrimidin-2-yl)ethyl)-N-([2-3H]pyridin-3-ylmethyl)-2-(4-(trifluoromethoxy)phenyl)acetamide preincubated for 5 mins followed NADPH addition measured after 45 mins by TIC mass chromatographic analysis; format: ADME; conditions: recombinant enzyme, 0.75 h
T1 sequence (P08684 whole entry): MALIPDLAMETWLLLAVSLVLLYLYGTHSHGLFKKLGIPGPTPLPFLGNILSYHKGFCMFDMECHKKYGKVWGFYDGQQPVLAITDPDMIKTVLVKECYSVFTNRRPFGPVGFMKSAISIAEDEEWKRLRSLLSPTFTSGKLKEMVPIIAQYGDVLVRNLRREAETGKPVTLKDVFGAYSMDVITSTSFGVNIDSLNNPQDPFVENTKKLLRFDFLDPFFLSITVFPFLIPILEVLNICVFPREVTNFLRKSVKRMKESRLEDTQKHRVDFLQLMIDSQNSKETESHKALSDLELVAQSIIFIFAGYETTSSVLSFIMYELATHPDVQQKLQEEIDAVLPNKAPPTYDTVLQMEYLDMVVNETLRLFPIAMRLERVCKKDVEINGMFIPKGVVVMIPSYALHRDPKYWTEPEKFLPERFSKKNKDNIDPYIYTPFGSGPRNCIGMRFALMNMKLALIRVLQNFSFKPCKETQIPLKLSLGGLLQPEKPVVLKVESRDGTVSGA

Cytochrome P450 3A4 [2] = biological target: T1, Cytochrome P450 3A4; experiment: (§1) Inhibition of CYP3A4 in human liver microsomes using testosterone as substrate assessed as residual enzyme activity after 2 to 10 mins by LC-MS/MS analysis; format: ADME
CYP3A4 [3] = biological target: T2, CYP3A4 (Homo sapiens, UniProt P08684); experiment: as §1; format: ADME; conditions: human, liver microsomes, probe testosterone
T2 sequence (P08684 whole entry): as above

Cytochrome P450 3A4 [4] = biological target: T1, Cytochrome P450 3A4; experiment: Ratio of Kinact to Ki for CYP3A4 in human liver microsomes using testosterone as substrate; format: ADME
Cytochrome P450 3A4 [5] = biological target: T1, Cytochrome P450 3A4; experiment: Ratio of Kinact to Ki for CYP3A4 in human liver microsomes using midazolam as substrate; format: ADME
Cytochrome P450 3A4 [6] = biological target: T1, Cytochrome P450 3A4; experiment: Time dependent inhibition of CYP3A4 in human liver microsomes using testosterone as substrate preincubated for 30 mins followed by 10-fold dilution and substrate addition by LC-MS/MS analysis in presence of NADPH; format: ADME
Cytochrome P450 3A4 [7] = biological target: T1, Cytochrome P450 3A4; experiment: Time dependent inhibition of CYP3A4 in human liver microsomes using testosterone as substrate preincubated for 30 mins followed by 10-fold dilution and substrate addition by LC-MS/MS analysis; format: ADME
Cytochrome P450 3A4 [8] = biological target: T1, Cytochrome P450 3A4; experiment: Time dependent inhibition of CYP3A4 in human liver microsomes assessed as conversion of testosterone to 6beta-hydroxytestosterone 0.1 to 30 uM by LC-MS/MS analysis; format: ADME
Cytochrome P450 3A4 [9] = biological target: T1, Cytochrome P450 3A4; experiment: Inactivation of recombinant CYP3A4 (unknown origin) using testosterone as substrate assessed as partition ratio up to 30 uM preincubated for 5 mins followed by dialysis measured after 4 hrs; format: ADME; conditions: recombinant enzyme
CYP3A4 [10] = biological target: T2, CYP3A4; experiment: (§2) Ratio of IC50 for CYP3A4 in human liver microsomes using midazolam as substrate preincubated for 30 mins followed by 10-fold dilution and substrate addition to IC50 for CYP3A4 in human liver microsomes using midazolam as substrate preincubated for 30 mins followed by 10-fold dilution and substrate addition in presence of NADPH; conditions: probe midazolam, read-out: Ratio IC50
Cytochrome P450 3A4 [11] = biological target: T1, Cytochrome P450 3A4; experiment: Time dependent inhibition of CYP3A4 in human liver microsomes assessed as conversion of midazolam to 1'-hydroxymidazolam at 0.1 to 30 uM by LC-MS/MS analysis; format: ADME
Cytochrome P450 3A4 [12] = biological target: T1, Cytochrome P450 3A4; experiment: Inhibition of CYP3A4 in human liver microsomes using testosterone as substrate assessed as unbound inhibitor concentration required for half maximal enzyme inactivation after 2 to 10 mins by LC-MS/MS analysis; format: ADME
Cytochrome P450 3A4 [13] = biological target: T1, Cytochrome P450 3A4; experiment: Inhibition of CYP3A4 in human liver microsomes using midazolam as substrate assessed as unbound inhibitor concentration required for half maximal enzyme inactivation after 2 to 10 mins by LC-MS/MS analysis; format: ADME
Cytochrome P450 3A4 [14] = biological target: T1, Cytochrome P450 3A4; experiment: (§3) Inhibition of CYP3A4 in human liver microsomes using midazolam as substrate assessed as residual enzyme activity after 2 to 10 mins by LC-MS/MS analysis; format: ADME
CYP3A4 [15] = biological target: T2, CYP3A4; experiment: as §3; format: ADME; conditions: human, liver microsomes, probe midazolam
CYP3A4 [16] = biological target: T2, CYP3A4; experiment: as §2, with “testosterone” for “midazolam”; conditions: probe testosterone, read-out: Ratio IC50
Cytochrome P450 3A4 [17] = biological target: T1, Cytochrome P450 3A4; experiment: Time dependent inhibition of CYP3A4 in human liver microsomes using midazolam as substrate preincubated for 30 mins followed by 10-fold dilution and substrate addition by LC-MS/MS analysis; format: ADME
Cytochrome P450 3A4 [18] = biological target: T1, Cytochrome P450 3A4; experiment: Inactivation of recombinant CYP3A4 (unknown origin) using midazolam as substrate assessed as partition ratio up to 30 uM preincubated for 5 mins followed by dialysis measured after 4 hrs; format: ADME; conditions: recombinant enzyme
Cytochrome P450 3A4 [19] = biological target: T1, Cytochrome P450 3A4; experiment: Time dependent inhibition of CYP3A4 in human liver microsomes using midazolam as substrate preincubated for 30 mins followed by 10-fold dilution and substrate addition by LC-MS/MS analysis in presence of NADPH; format: ADME
Cytochrome P450 3A4 [20] = biological target: T1, Cytochrome P450 3A4; experiment: Drug metabolism assessed as recombinant CYP3A4 (unknown origin)-mediated compound formation treated with [3H]-(R)-N-(1-(3-(4-hydroxyphenyl)-4-oxo-3,4-dihydropyrido[2,3-d]pyrimidin-2-yl)ethyl)-N-(pyridin-3-ylmethyl)-2-(4-(trifluoromethoxy)phenyl)acetamide preincubated for 5 mins followed NADPH addition measured after 45 mins by TIC mass chromatographic analysis in presence of GSH; format: ADME; conditions: recombinant enzyme, 0.75 h
Cytochrome P450 3A4 [21] = biological target: T1, Cytochrome P450 3A4; experiment: Drug metabolism assessed as recombinant CYP3A4 (unknown origin)-mediated (R)-N-(1-(3-(3,4-dihydroxyphenyl)-4-oxo-3,4-dihydropyrido[2,3-d]pyrimidin-2-yl)ethyl)-N-(pyridin-3-ylmethyl)-2-(4-(trifluoromethoxy)phenyl)acetamide formation preincubated for 5 mins followed NADPH addition measured after 45 mins by TIC mass chromatographic analysis in presence of GSH; format: ADME; conditions: recombinant enzyme, 0.75 h
Cytochrome P450 3A4 [22] = biological target: T1, Cytochrome P450 3A4; experiment: Drug metabolism assessed as recombinant CYP3A4 (unknown origin)-mediated (R)-N-(1-(3-(2,4-dihydroxyphenyl)-4-oxo-3,4-dihydropyrido[2,3-d]pyrimidin-2-yl)ethyl)-N-(pyridin-3-ylmethyl)-2-(4-(trifluoromethoxy)phenyl)acetamide formation preincubated for 5 mins followed NADPH addition measured after 45 mins by TIC mass chromatographic analysis in presence of GSH; format: ADME; conditions: recombinant enzyme, 0.75 h

- Drug metabolism (Cytochrome P450 3A4 [1]): metabolite_detected
Structure (SMILES): C[C@H](c1nc2ncccc2c(=O)n1-c1ccc(O)cc1O)N(Cc1cccnc1)C(=O)Cc1ccc(OC(F)(F)F)cc1

- Drug metabolism (Cytochrome P450 3A4 [1]): metabolite_detected
Structure (SMILES): CC(c1nc2ncccc2c(=O)n1-c1ccc(O)c(O)c1SC[C@H](NC(=O)[C@@H](N)CCC(=O)O)C(=O)NCC(=O)O)N(Cc1cccnc1)C(=O)Cc1ccc(OC(F)(F)F)cc1 (single isomer, unassigned)

- Drug metabolism (Cytochrome P450 3A4 [1]): metabolite_detected
Structure (SMILES): C[C@H](c1nc2ncccc2c(=O)n1-c1c(O)cc(O)cc1SC[C@H](NC(=O)[C@@H](N)CCC(=O)O)C(=O)NCC(=O)O)N(Cc1cccnc1)C(=O)Cc1ccc(OC(F)(F)F)cc1

- Drug metabolism (Cytochrome P450 3A4 [1]): metabolite_detected
Structure (SMILES): C[C@H](c1nc2ncccc2c(=O)n1-c1cc(O)c(O)c(SC[C@H](NC(=O)[C@@H](N)CCC(=O)O)C(=O)NCC(=O)O)c1)N(Cc1cccnc1)C(=O)Cc1ccc(OC(F)(F)F)cc1

- Ki (Cytochrome P450 3A4 [2]): 1900 nM
- kinact (CYP3A4 [3]): 0.00165 s⁻¹
- Ratio (Cytochrome P450 3A4 [4]): 0.13 mL/min/nmol
- Ratio (Cytochrome P450 3A4 [5]): 0.12 mL/min/nmol
- IC50 (Cytochrome P450 3A4 [6]): 68 nM
- IC50 (Cytochrome P450 3A4 [7]): 2100 nM
- inhibition (INH) (Cytochrome P450 3A4 [8]): Active
- Ratio (Cytochrome P450 3A4 [9]): 36
- inhibition (INH) (Cytochrome P450 3A4 [11]): Active
- Ki (Cytochrome P450 3A4 [12]): 740 nM
- Ki (Cytochrome P450 3A4 [13]): 730 nM
- Ki (Cytochrome P450 3A4 [14]): 1900 nM
- kinact (CYP3A4 [15]): 0.00147 s⁻¹
- IC50 (Cytochrome P450 3A4 [17]): 650 nM
- Ratio (Cytochrome P450 3A4 [18]): 36
- IC50 (Cytochrome P450 3A4 [19]): 27 nM
Structure (SMILES): C[C@H](c1nc2ncccc2c(=O)n1-c1ccc(O)cc1)N(Cc1cccnc1)C(=O)Cc1ccc(OC(F)(F)F)cc1
- IC50 shift at 30 min (CYP3A4 [10]): 24
- IC50 shift at 30 min (CYP3A4 [16]): 31

- Drug metabolism (Cytochrome P450 3A4 [1]): metabolite_detected
Structure (SMILES): CC(c1nc2ncccc2c(=O)n1-c1ccc(O)c(SC[C@H](NC(=O)[C@@H](N)CCC(=O)O)C(=O)NCC(=O)O)c1O)N(Cc1cccnc1)C(=O)Cc1ccc(OC(F)(F)F)cc1 (single isomer, unassigned)

- Drug metabolism (Cytochrome P450 3A4 [1]): metabolite_detected
Structure (SMILES): C[C@H](c1nc2ncccc2c(=O)n1-c1ccc(O)c(O)c1)N(Cc1cccnc1)C(=O)Cc1ccc(OC(F)(F)F)cc1

- Drug metabolism (Cytochrome P450 3A4 [1]): metabolite_detected
Structure (SMILES): C[C@H](c1nc2ncccc2c(=O)n1-c1cc(O)c(O)cc1SC[C@H](NC(=O)[C@@H](N)CCC(=O)O)C(=O)NCC(=O)O)N(Cc1cccnc1)C(=O)Cc1ccc(OC(F)(F)F)cc1

- Drug metabolism (Cytochrome P450 3A4 [1]): metabolite_detected
Structure (SMILES): C[C@H](c1nc2ncccc2c(=O)n1-c1cc(SC[C@H](NC(=O)[C@@H](N)CCC(=O)O)C(=O)NCC(=O)O)c(O)cc1O)N(Cc1cccnc1)C(=O)Cc1ccc(OC(F)(F)F)cc1

- Drug metabolism (Cytochrome P450 3A4 [20]): metabolite_detected
Structure (SMILES): C[C@H](c1nc2ncccc2c(=O)n1-c1ccc(O)cc1)N(Cc1ccc[n+]([O-])c1)C(=O)Cc1ccc(OC(F)(F)F)cc1

- Drug metabolism (Cytochrome P450 3A4 [21]): metabolite_detected
- Drug metabolism (Cytochrome P450 3A4 [22]): metabolite_detected
Structure (SMILES): [3H]c1ncccc1CN(C(=O)Cc1ccc(OC(F)(F)F)cc1)[C@H](C)c1nc2ncccc2c(=O)n1-c1ccc(O)cc1
